Assay: Solubility parameter δ estimated from tabulated molecular substituent constants (Fedors)
Settings: difference to the solubility parameter of retinol
Source text: Solubility attributes of two or more materials with respect to each other are generally reflected in the “solubility parameter”, δ, which is expressed in the units (cal/cm^3)^1/2.
The value of the solubility parameter can be estimated from tabulated molecular substituent constants such as those described by Fedors. These substituent constants can be found in Solubility and Related Properties by Kenneth C. […] Generally, according to Textbook of Polymer Science, 2nd Ed., Billmeyer, solubility can be expected if the difference of the solubility parameters of two materials is less than about 2 units.

Compound | δN − δRETINOL
CC1CC(OC(=O)c2ccccc2O)CC(C)(C)C1 (stereo not drawn) [Homomenthyl Salicylate] | 1.14 (cal/cm^3)^1/2
CC1CCC(C(C)C)C(OC(=O)c2ccccc2N)C1 (stereo not drawn) [Menthyl Anthranilate] | 0.13 (cal/cm^3)^1/2
CCCCC(CC)COC(=O)C(C#N)=C(c1ccccc1)c1ccccc1 (stereo not drawn) [Octocrylene] | 0.74 (cal/cm^3)^1/2
CCCCC(CC)COC(=O)c1ccc(N(C)C)cc1 (stereo not drawn) [Octyl Dimethyl PABA] | −0.33 (cal/cm^3)^1/2
CCCCC(CC)COC(=O)C=Cc1ccc(OC)cc1 (stereo not drawn) [Octyl Methoxy Cinnamate] | −0.29 (cal/cm^3)^1/2
DEA Methoxysalicylate | 2.94 (cal/cm^3)^1/2

— patent publication US20030206932A1, “Novel topical compositions” (priority 1994, published 2003)
